Data: patent US20180008688A1, “METHOD AND COMPOSITIONS FOR ENHANCING IMMUNOTHERAPEUTIC TREATMENT OF A CANCER” (Augusta University Research Institute, Inc., priority 2016, published 2018)
Entries after “also recorded” stand apart in the source; their conditions may differ.

What was measured:
[1] = tested on: B16-OVA tumors; test: RIP-mOVA mice with OT-I cells and B16-OVA tumors, immunotherapy with or without nutlin-3a; assay type: in vivo
Experimental: It was then determined which of these opposing effects would prevail when the same antigen was both a tumor-antigen and self-antigen. RIP-mOVA mice expressing OVA as a self-antigen were implanted with B16-OVA tumors expressing OVA as a tumor antigen (Falo. Jr. et al., (1995) Nat. Med. 1: 649-653). Prior to tumor implantation, all mice received adoptive transfer of congenically-marked OT-I cells. After tumors were established, mice were treated with immunotherapy (PTEN-inhibitor plus chemotherapy), with or without nutlin-3a.
RIP-mOVA mice bearing B16-OVA tumors were treated with a cocktail of blocking antibodies against CTLA-4 plus PD-1, PD-L1 and PD-L2, with or without concurrent nutlin-3a.
(§1) Tumor implantation was performed as described (Sharma et al., (2007) J. Clin. Invest. 117: 2570-2582). VO-OHpic was given at 10 mg/kg/day i.p., in 10% DMSO/PBS. Cyclophosphamide was given at 150 mg/kg i.p×1 dose; and oxaliplatin at 5 mg/kg i.p×1 dose. Nutlin-3a was administered daily at 10 mg/kg/day i.p. For checkpoint blockade, mice received anti-CTLA-4 plus a cocktail of antibodies against the PD-1 pathway. Vaccines and T cell adoptive transfer studies were performed as described (Sharma et al., (2015) Sci. Advances. 1: e1500845).
The immune-activating effect of p53 is context-specific for the tumor milieu: The immunogenic effect of nutlin-3a seemed paradoxical because in most settings p53 is thought to be immunosuppressive (Munoz-Fontela et al., (2016) Nat. Rev. lmmunol. 16: 741-750; Thomasova et al., (2012) Neoplasia 14: 1097-1101). It was considered that p53 actually plays two roles in the immune system: a self-tolerance role in normal tissues during physiologic cell death (Yoon et al., (2015) Science 349: 1261669); but a pro-inflammatory role in certain specialized contexts such as immune-surveillance of tumors (Munoz-Fontela et al., (2016) Nat. Rev. lmmunol. 16: 741-750). To test this, a model in which OVA-expressing tumors were implanted in RIP-mOVA mice (which constitutively express OVA in pancreatic islet cells) was used. OVA thus became both a normal tissue antigen and a tumor antigen.

[2] = tested on: OT-I T cells; test: OT-I T cells activated with cognate antigen and different antigen-presenting cells, with nutlin; assay type: cell-based, mouse
Description: Under normal circumstances the signal to downregulate p53 is provided by engagement of the T cell antigen receptor (TCR) that activates MDM2 and targets p53 for degradation (Watanabe et al., (2014) Immunity 40: 681-691).
To test whether the effect of Ly6c^+CD103^+ dendritic cells was due to IL-12, OT-I T cells were activated using 3 different types of antigen-presenting cells (APCs).
Consistent with this, when dendritic cells were sorted from TDLNs of IL-12-deficient mice (IL-12p40-KO), treated with the same immunotherapy regimen, these dendritic cells were unable to rescue T cells from nutlin. T cell proliferation tracked concordantly with p53 levels. In these experiments with dendritic cells from TDLNs, feeder populations were added to maintain functional activity.

[3] = tested on: OT-I T cells; test: Autoimmune diabetes in RIP-mOVA mice after OT-I T cell transfer (no tumor); assay type: in vivo, mouse
Experimental: Accordingly and without wishing to be bound by any one hypothesis, it is likely that p53 can play two different immunologic roles, depending on the context (tumor versus normal tissues). […] Following T cell transfer, these mice progressively developed lethal autoimmune diabetes. However, if mice were treated with nutlin-3a diabetes formation was suppressed and the mice remained healthy.

[4] = tested on: B16F10 tumors; test: Established B16F10 tumors treated with dual checkpoint blockade with or without nutlin-3a; assay type: in vivo, mouse
Experimental: (§2) In vivo tumor studies: The B16F10 and E.G7 (EL4-OVA) cell lines were obtained from ATCC. B16-OVA (B16F10 transfected with full-length chicken ovalbumin) clone MO4 was according to Falo et al. ((1995) Nat. Med. 1: 649-653). B16F10 cells expressing EGFP protein (B16-GFP cells) were derived using lentiviral transfection. Tumor implantation was performed as described (Sharma et al., (2007) J. Clin. Invest. 117: 2570-2582), using 1×10^5 cells for B16F10 and 1×10^6 cells for other cell lines (large inocula were used to ensure rapid tumor engraftment and immune suppression). Tumors were implanted bilaterally in each mouse as a control for reproducible implantation technique; replicate tumor diameters in a single mouse were typically within ±15%. Tumor volume was calculated from orthogonal diameters using the formula V=L×W^2×π/6. Mice received approved euthanasia when tumors reached a size of 300 mm^2 (product of orthogonal diameters); death was never used a planned endpoint in any study.
as §1, with “Vaccines and T cell adoptive transfer studies were performed as described (Sharma et al., (2015) Sci. Advances. 1: e1500845).” left out

[5] = tested on: E.G7 tumors; test: E.G7 (EL4-OVA) tumors in wild-type hosts treated with oxaliplatin with or without nutlin-3a; assay type: in vivo, mouse; details: for Ly6C+/CD103+ dendritic cells in tumors: nutlin added to oxaliplatin
Experimental: as §2, §1
VO-OHpic was given at 10 mg/kg/day i.p., in 10% DMSO/PBS. Cyclophosphamide was given at 150 mg/kg i.p×1 dose. Oxaliplatin was given at 5 mg/kg i.p×1 dose. Nutlin-3a was dissolved at 2 mg/ml in 10% DMSO in buffered saline and administered daily at 10 mg/kg/day i.p. The 10 mg/kg/day dose was at the lower end of the parenteral dosing range described for mice (Zhang et al., (2011) Drug Meta. Dispos. 39: 15-21). For checkpoint blockade, mice received anti-CTLA-4 (clone 9D9, BioXcell) plus a cocktail of antibodies against the PD-1 pathway: anti-PD-L2, clone TY25 (Yamazaki et al., (2002) J. Immunol. 169: 5538-5545); anti-PD-1, clone J43 (Agata et al., (1996) Int. Immunol. 8: 765-772); and anti-PD-L1, clone MIH7 (Tsushima et al., (2003) Eur. J. Immunol. 33: 2773-2782). A cocktail was used in order to block the PD-1 pathway as completely as possible and thus minimize any peculiarities of a single blocking antibody.

[6] = nutlin added to checkpoint blockade
[7] = nutlin-3a 10 mg/kg/day added to CTX/VO-OHpic, FIG. 13
[8] = nutlin-3a 10 mg/kg/day added to CTX/VO-OHpic, FIG. 13, 10 mg/kg/day
[9] = activation with cognate antigen

For `COc1ccc(C2=NC(c3ccc(Cl)cc3)C(c3ccc(Cl)cc3)N2C(=O)N2CCNC(=O)C2)c(OC(C)C)c1` (single isomer, unassigned; (-)) [nutlin-3a, (−)-4-(4,5-Bis(4-chlorophenyl)-2-(2-isopropoxy-4-methoxyphenyl)-4,5-dihydro-1H-imidazole-1-carbonyl)piperazin-2-one], the “Ly6c+CD103+ dendritic cells in the tumors” value [1, 6] was “maintained expression”, the anti-tumor effect [1, 6] was “significantly enhancing and prolonging the anti-tumor effect” and the autoimmune diabetes ([1]; nutlin added to checkpoint blockade (CTLA-4 plus PD-1, PD-L1, PD-L2 antibodies)) was “protected recipient subjects from autoimmune diabetes”. For the same compound, the “p53 in OT-I T cells in pancreatic LNs” value ([1]; nutlin added to immunotherapy) was “increase p53”, the “p53 in OT-I T cells in TDLNs” value ([1]; nutlin added to immunotherapy, same animals) was “complete loss of detectable p53 expression” and the anti-tumor effect [1, 7] was “markedly enhanced the anti-tumor response”. The autoimmune diabetes [1, 7] was “fully protected from diabetes”, the anti-tumor effect [1, 8] was “enhanced and prolonged” and the autoimmune diabetes [1, 8] was “protected the mice from lethal autoimmunity”. For the same compound, the “down-regulation of p53 in OT-I T cells” value ([2]; CD11c+Ly6c+ dendritic cells from TDLNs of VO-OHpic+CTX treated mice as APCs) was “lost all ability to prevent down-regulation of p53”, the T cell proliferation [2, 9] was “prevented T cell proliferation” and the “total p53 in OT-I T cells” value [2, 9] was “marked increase”. The “down-regulation of p53 in OT-I T cells” value ([2]; dendritic cells from normal LNs as APCs) was “completely prevented”, the “level of p53 in OT-I cells in pancreatic LNs” value ([3]; mouse, in vivo) was “increased” and the diabetes formation ([3]; nutlin-3a treatment after OT-I transfer) was “suppressed”. The “expression of granzyme B in OT-I cells” value ([3]; pancreatic LNs) was “decreasing”, the “Ly6C+/CD103+ dendritic cells in tumors” value ([4]; nutlin added to checkpoint blockade, after 2 weeks of treatment) was “maintained large numbers” and the anti-tumor effect ([4]; nutlin-3a 10 mg/kg/day i.p. added to dual checkpoint blockade, FIG. 8A) was “significantly enhanced and prolonged the effect of treatment”. The “Ly6C+/CD103+ dendritic cells in tumors” value [5] was “sustained expression”, the “Ly6C+/CD103+ dendritic cells in tumors” value ([5]; listed as nutlin) was “maintained long-term expression” and the anti-tumor effect ([5]; nutlin-3a added to one dose of oxaliplatin, FIG. 8C) was “markedly prolonged the anti-tumor effect; also recorded: significantly increased the intensity and duration of the anti-tumor effect”. For the same compound, the IL-12 production ([5]; nutlin-3a added to oxaliplatin) was “enhanced IL-12 production”.
